Data on one substance can be found in patent US8193147B2, “Use of copolymer 1 for treatment of muscular dystrophy” (Hadasit Medical Research Services & Development Ltd., priority 2007, dated 2012).

What all share (format): in vivo, mouse
One data set deals with WT and dy^2J mice. The experiment in a line: Observation of side effects during treatment. The following applies: treated group; 200 μg GA IP three times a week for 13 weeks. How it is done:
(§1) At 5 weeks of age WT and dy^2J animals were randomly divided to the treated and control groups. The animals were treated three times a week for 13 weeks.
No animal had paralysis with inability to reach food or water or dramatic weight loss (more than 10% weight loss between two weightings or 20% or more than its initial weight) or any other severe stress signs, that would necessitate withdrawal of the animal from the experiment.

The test system of data set [1] is HO (homozygote) dy^2j mice. The experiment in a line: Motion analysis by video-recording (EthoVision), HO dy2J mice. The protocol:
(§2) Population: Twenty C57BL old mice were randomly divided into 4 groups (5 in each group):
as §1
(§3) Motion analysis by video-recording. At the end of the experiment (19 week of age) animal mobility and well-being were video recorded for 10 minutes sessions. The video films were analyzed using the EthoVision system (NBT-New Biotechnology, Jerusalem, Israel, video tracking system recording of activity and movement). Quantitative parameters of mobility of the animals including total distance, maximum distance in 0.2 second, average and peak velocity were calculated.

For data set [2], the system named is HO (homozygote) dy^2j mice. The experiment in a line: Grip strength of hind and fore limbs (Grip Strength Meter) in GA-treated dy2J mice. The following applies: for hind limbs strength (muscle grip strength per body weight): between week 7 and week 19, p=0.0017, FIG. 1A. The protocol: as §2
1. WT mice—treated saline 100 μl/IP
2. WT mice—treated with 200 μg GA/IP
3. HO mice—treated Saline 100 μl/IP
4. HO mice—treated with 200 μg GA/IP
as §1
Measurement of muscle strength (blind measurement). Once a week weight gain and total peak force (in Gram force/g bodyweight) were determined using electronic Grip Strength Meter, Columbus Instruments (Columbus, Ohio). Muscle strength measurements of both fore and hind limbs were performed according to Connolly A. M. et al., 2001. Mice were brought to the testing room and allowed to acclimatize for 10 minutes before the test begins. Five measurements (fore and hind limbs) were taken from each animal. The three highest measurements for each animal were averaged to give the strength score. Between the fore and hind measurements the mice were allowed to rest for 10 minutes. All measurements were performed by the same person.

The test system of a further data set is dy^2j mice. The experiment in a line: Muscle biopsy histology (Hematoxylin-Eosin), muscular fibrosis. The following applies: dy^2j mice treated with GA for 12 weeks vs untreated; biopsies in week 17; FIG. 7. How it is done:
Tissue analysis. […]
Muscle biopsies. Muscle biopsies were obtained from the hind limbs and were tested for:
1. Muscle histology hematoxylin and eosin stain (H&E) and Gommori trichrome stains

For data set [3], the system named is WT (wild type) C57BL mice. The experiment in a line: Motion analysis by video-recording (EthoVision), WT mice. To be noted: WT GA vs WT saline. The protocol: as §2, §1, §3

Consider glatiramer acetate [GA], for which the side effects entry with WT and dy^2J mice is “No other side effects were noted”. Also, the “maximal distance in 0.2 sec period” value in data set [1] (HO GA treated vs untreated, p=0.016, FIG. 6) was “significantly longer”; in data set [3] (p=0.39, FIG. 6), “not significantly different”. Also, the “total 10-minutes average distance” value in data set [1] (HO GA treated vs untreated, p=0.052, FIG. 5) is “significantly longer”; in data set [3] (p=0.51, FIG. 5), “not significantly different”. In addition, the “total ten minutes average velocity” value in data set [1] (HO GA-treated (n=5) vs untreated (n=4), p=0.051, FIG. 3) is listed as “significantly faster”; in data set [3] (p=0.51, FIG. 3), “not significantly different”. In addition, the “peak velocity in 0.2 sec period” value is given as “significantly faster” in data set [1] (HO GA-treated vs HO untreated, p=0.017, FIG. 4) and “not significantly different” in data set [3] (p=0.38, FIG. 4). Moreover, in data set [1] (treated dy^2j mice vs untreated dy^2j mice), the mobility entry is on record as “improved significantly”. Besides, the “mobility compared with wild type mice” value in data set [1] (treated dy^2j mice, at the end of the experiment) is on record as “undistinguishable from the mobility of the wild type mice”. In data set [2] (GA 200 μg IP three times a week, GA-treated HO vs untreated HO, p=0.13, FIG. 1B), the “fore limbs strength (muscle grip strength per body weight)” value was “only minimal effect”. Further, the “hind limbs strength (muscle grip strength per body weight)” value in data set [2] (GA 200 μg IP three times a week, GA-treated HO vs untreated HO) was “Significant increase”; in data set [2] (GA 200 μg IP three times a week, GA-treated HO vs untreated HO, listed as Cop 1), “improved significantly”. The “percentage of hind limbs strength, end of the experiment” value in data set [2] (HO treated mice, age 19 weeks, 100% = WT saline group at age seven weeks, FIG. 2) was found to be 95.26%. Moreover, the “percentage of hind limbs strength, initial” value in data set [2] (HO treated mice, week 7, 100% = WT saline group at age seven weeks, FIG. 2) is reported as 62.74%. In addition, the “hind limbs muscle strength compared with wild type mice” value in data set [2] (treated dy^2j mice, at the end of the experiment, IP injection) is “as strong as the wild type mice”. For the same substance, the “muscular fibrosis in muscle biopsies” value with dy^2j mice was “significantly reduced muscular fibrosis”.
